Patent US6124310A, “Enediyne compounds” (priority 1995, dated 2000)

How the values were obtained:
UV4 cells = test: Growth inhibition of UV4 cells, 18 hours in 96-well plates under aerobic conditions, without or with purified E. coli nitroreductase and NADH; format: cell-based; settings: for IC50: Cricetulus griseus, UV4, 18 h, 18 hours, aerobic
Procedure: The compound prepared in Example 1 was activated by the aerobic nitroreductase from E. coli, by being incubated with UV4 cells for 18 hours in 96-well plates under aerobic conditions.

tumour cell cultures = settings: naturally-occurring enediyne antibiotics, literature; cited from earlier work

With `O=C(OCc1ccc([N+](=O)[O-])cc1)N1c2ccccc2C23OC24CCCC3C#C/C=C\C#CC14` (racemic) [compound 2, (6R,6aR,10R,10aS,14Z)-(±)-(4-nitrophenyl)methyl 7,8,9,10-tetrahydro-6a,10a-epoxy-6, [3]-hexene[1,5]diynophenanthridine-5(6H)-carboxylate] the IC50 (UV4 cells; compound alone) was 18.1 µM, the IC50 (UV4 cells; together with purified E. coli nitroreductase enzyme (1 μg/mL) and NADH (1 mM, as cofactor)) was 0.19 µM and the “fold activation by the enzyme” value (UV4 cells; ratio of IC50 without / with E. coli nitroreductase + NADH, 1080 min) was 115 fold.
With `O=C(Oc1ccccc1)N1c2ccccc2C23OC24CCCC3C#C/C=C\C#CC14` (stereo not shown) [formula A'] the “showed any activation by the enzyme” value (UV4 cells; E. coli nitroreductase, in words: 'neither ... showed any activation') was “neither”.
For calicheamicin, the “IC50 values for inhibition of growth of tumour cell cultures” value (“IC50 values for inhibition” for short) (tumour cell cultures) is listed as “low pM range”.
In the case of dynemicin, the “IC50 values for inhibition” value (tumour cell cultures) is given as “low pM range”.
In the case of esperamicin, the “IC50 values for inhibition” value (tumour cell cultures) is given as “low pM range”.
